# Measurements published in US20220332774A1, “THERAPEUTIC MITOCHONDRIAL PEPTIDES” (priority 2019, published 2022).
# Legend:
# C2C12 Cells = assay: Glucose utilization in cultured C2C12 cells (myotubes); type: cell-based, mouse; conditions: 22 h; for Percent of Control Activity: glucose concentration in medium relative to untreated cells, 5 μM peptide
# Procedure: The effect of the peptides on glucose homeostasis can be assessed using an assay to monitor glucose utilization by cultured cells such as mouse myotubes. Peptide arrays were initially prepared as 5 mM stock in DMSO and diluted to 0.5 mM in H2O; peptides were used at a final concentration of 5 μM (0.1% DMSO). Calculations for peptide concentrations based on approximate molecular weight of 2000 Daltons. C2C12 mouse muscle cell line was purchased from Millipore Sigma (Saint Louis, Mo.). C2C12 cells were seeded in standard medium (DMEM/low glucose (1 g/L)+10% Fetal Bovine Serum+antibiotics) at 7,500 cells/well on 96-well plates and grown to confluence at 37° C. in a humidified atmosphere of 5% CO2/95% air. Three days after plating the medium was removed and with Differentiation Medium (DMEM/low glucose (1 g/L)+2% Horse Serum+antibiotics) added. The cultures were placed at 37° C. in a humidified atmosphere of 5% CO2/95% air for 5 days with partially replacement of medium daily. After 5 days of differentiation, the medium was removed from myotube cultures and replaced with Assay Medium (DMEM/low glucose (1 g/L)+antibiotics). Culture were placed at 37° C. in a humidified atmosphere of 5% CO2/95% air for 5 h. Following the 5 h incubation the medium was removed and fresh Assay Medium containing compounds was added; 5 μM peptide or 1 mM metformin as a potent stimulator of glucose utilization. Cells were incubated for 22 h at 37° C. in a humidified atmosphere of 5% CO2/95% air. Following 22 h incubation, conditioned medium from each well was transferred to a fresh 96-well plate. Glucose concentrations in the medium were determined using a Glucose Assay kit (Abcam; Cambridge, Mass.) according to the manufacturer's instructions; absorbance measured using a Cytation 3 plate reader at 570 nm (BioTek, Winooski, Vt.). Untreated cells were used as reference for basal glucose utilization. Absorbance values were expressed as percent control activity relative to untreated treated cells for 5 μM peptide. The relative standard deviation from plate to plate of untreated control was <10%. […] Data presented are representative values from 2-3 independent experiments with each data point performed in triplicate in each independent experiment.
# 3T3-L1 Mouse Adipocytes = assay: Free fatty acid levels in cultured 3T3-L1 mouse adipocytes (isoproterenol stimulated); type: cell-based; conditions: for Percent of Isoproterenol Control Activity: free fatty acid in medium, 5 μM peptide, 20-22 h pre-incubation then 3 h with 0.1 nM isoproterenol, isoproterenol alone = 100%
# Procedure: The effect of the peptides on fatty acid metabolism can be assessed using an assay to monitor free fatty acid levels produced by cultured cells such as mouse adipocytes. Peptide arrays were initially prepared as 5 mM stock in DMSO and diluted to 0.5 mM in H2O; peptides were used at a final concentration of 5 μM (0.1% DMSO). Calculations for peptide concentrations based on approximate molecular weight of 2000 Daltons. […] Mouse 3T3-L1 cells purchased from ZenBio (Research Triangle Park, NC) were seeded at 3,000 cells per well in 96-well plates in Pre-adipocyte Medium (Zen-Bio) and grown to confluence at 37° C. in a humidified atmosphere of 5% CO2/95% air. Two days after confluence, cells were placed in Adipocyte Differentiation Medium (Zen-Bio) and cultured for three additional days at 37° C. in a humidified atmosphere of 5% CO2/95% air. The culture medium was then replaced with Adipocyte Maintenance Medium (Zen-Bio) and the cells maintained for an additional 9 days at 37° C. in a humidified atmosphere of 5% CO2/95% air with partial medium replacement every other day. Following 12 days of differentiation, medium was replaced Adipocyte Maintenance Medium without insulin and the cultures placed at 37° C. in a humidified atmosphere of 5% CO2/95% air. On day 13 of differentiation, test peptides were added directly to each well (without replacing the medium) at a final concentration of 5 μM in 0.1% DMSO and incubated for 20-22 hours at 37° C. in a humidified atmosphere of 5% CO2/95% air. […] Cells were incubated for 3 hours in Assay Buffer (Zen-Bio) at 37° C. in a humidified atmosphere of 5% CO2/95% air. Following 3 h incubation, conditioned medium from each well was transferred to a fresh 96-well plate. Free fatty acid concentrations in the medium were determined using a Free Fatty Acid Assay kit (Zen-Bio) according to the manufacturer's instructions; absorbance was measured using a Cytation 3 plate reader at 540 nm (BioTek, Winooski, Vt.). Treatment with 0.1 nM isoproterenol alone was used as the free fatty acid level stimulatory control. Absorbance values were expressed as percent control activity relative to 0.1 nM isoproterenol alone treated cells, 100%. The relative standard deviation of the isoproterenol control was <10%. Insulin at 0.25 nM was used as a potent control for decreasing free fatty acid levels. […] Data presented are representative values from 2 independent experiments with each data point performed in triplicate in each independent experiment.
# H4-IIE Cells = assay: Glucose production in cultured H4-IIE cells; type: cell-based, rat; conditions: 24 h; for Percent of Control Activity: glucose concentration in medium relative to untreated cells, 5 μM peptide
# Procedure: The effect of the peptides on glucose homeostasis can be assessed using an assay to monitor glucose production by cultured cells such as rat hepatocytes. Peptide arrays were initially prepared as 5 mM stock in DMSO and diluted to 0.5 mM in H2O; peptides were used at a final concentration of 5 μM (0.1% DMSO). Calculations for peptide concentrations based on approximate molecular weight of 2000 Daltons. H4-IIE rat hepatic cell line was purchased from American Type Culture Collection (Manassas, Va.). H4-IIE cells were seeded in standard medium (DMEM/high glucose+10% Fetal Bovine Serum+antibiotics) at 100,000 cells/well on 96-well plates and allowed to adhere overnight at 37° C. in a humidified atmosphere of 5% CO2/95% air. 24 h after seeding, the medium was removed, cells were rinsed with glucose free DMEM, and the medium replaced with Glucose Production Medium (glucose free DMEM+2 mM sodium pyruvate+10 mM sodium lactate+antibiotics). The cultures were placed at 37° C. in a humidified atmosphere of 5% CO2/95% air overnight. The next morning, the medium was removed and fresh Glucose Production Medium containing compounds was added; 5 uM peptide or 0.5-1 nM insulin as a potent inhibitor of glucose production. Cells were incubated for 24 h at 37° C. in a humidified atmosphere of 5% CO2/95% air. Following 24 h incubation, conditioned medium from each well was transferred to a fresh 96-well plate. Glucose concentrations in the medium were determined using a Glucose Assay kit (Abcam; Cambridge, Mass.) according to the manufacturer's instructions; absorbance measured using a Cytation 3 plate reader at 570 nm (BioTek, Winooski, Vt.). Untreated cells were used as reference for maximal glucose production. Absorbance values were expressed as percent control activity relative to untreated treated cells for 5 μM peptide. The relative standard deviation from plate to plate of untreated control was <25%. […] Glucose levels for 0.5-1 nM insulin treatment were <5% of the untreated control value. Data are presented as representative values from 2-3 independent experiments with each data point performed in triplicate in each independent experiment.
compound,measurement,setting,value
171 (MYRHLQQTLMKATK) [compound 171],Percent of Control Activity,C2C12 Cells,110%
same,Percent of Isoproterenol Control Activity,3T3-L1 Mouse Adipocytes,104%
same,Percent of Control Activity,H4-IIE Cells,100%
14 (MDGCALLAVL) [compound 14],Percent of Control Activity,C2C12 Cells,100%
same,Percent of Isoproterenol Control Activity,3T3-L1 Mouse Adipocytes,101%
same,Percent of Control Activity,H4-IIE Cells,120%
25 (MFLVGWWGMV) [compound 25],Percent of Control Activity,C2C12 Cells,97%
same,Percent of Isoproterenol Control Activity,3T3-L1 Mouse Adipocytes,91%
same,Percent of Control Activity,H4-IIE Cells,94%
152 (MVRMLLVQWW) [compound 152],Percent of Control Activity,C2C12 Cells,110%
same,Percent of Isoproterenol Control Activity,3T3-L1 Mouse Adipocytes,105%
same,Percent of Control Activity,H4-IIE Cells,89%
87 (MMMFVYSAMKN) [compound 87],Percent of Control Activity,C2C12 Cells,97%
same,Percent of Isoproterenol Control Activity,3T3-L1 Mouse Adipocytes,101%
same,Percent of Control Activity,H4-IIE Cells,109%
62 (MLGVVGWCRL) [compound 62],Percent of Control Activity,C2C12 Cells,91%
same,Percent of Isoproterenol Control Activity,3T3-L1 Mouse Adipocytes,94%
same,Percent of Control Activity,H4-IIE Cells,106%
6 (MAIAVVYPKTTIIPPK) [compound 6],Percent of Control Activity,C2C12 Cells,100%
same,Percent of Isoproterenol Control Activity,3T3-L1 Mouse Adipocytes,80%
same,Percent of Control Activity,H4-IIE Cells,122%
177 (MRMGASIGSTTRLSTS) [compound 177],Percent of Control Activity,C2C12 Cells,91%
same,Percent of Isoproterenol Control Activity,3T3-L1 Mouse Adipocytes,94%
same,Percent of Control Activity,H4-IIE Cells,111%
3 (MAGGFMLMIVVMKLMAPKMEETPA) [compound 3],Percent of Control Activity,C2C12 Cells,94%
same,Percent of Isoproterenol Control Activity,3T3-L1 Mouse Adipocytes,91%
same,Percent of Control Activity,H4-IIE Cells,118%
44 (MGVKFFTLST) [compound 44],Percent of Control Activity,C2C12 Cells,103%
same,Percent of Isoproterenol Control Activity,3T3-L1 Mouse Adipocytes,112%
same,Percent of Control Activity,H4-IIE Cells,103%
37 (MGLLEWLLCWHLLGRIINWWA) [compound 37],Percent of Control Activity,C2C12 Cells,109%
same,Percent of Isoproterenol Control Activity,3T3-L1 Mouse Adipocytes,106%
same,Percent of Control Activity,H4-IIE Cells,103%
42 (MGSSRLAVLCPPLHGQVNFTG) [compound 42],Percent of Control Activity,C2C12 Cells,107%
same,Percent of Isoproterenol Control Activity,3T3-L1 Mouse Adipocytes,106%
same,Percent of Control Activity,H4-IIE Cells,112%
98 (MNPDQPHHLLLSLYTAIFSKPWW) [compound 98],Percent of Control Activity,C2C12 Cells,91%
same,Percent of Isoproterenol Control Activity,3T3-L1 Mouse Adipocytes,97%
same,Percent of Control Activity,H4-IIE Cells,117%
126 (MSTHLPNYHTNLSYR) [compound 126],Percent of Control Activity,C2C12 Cells,110%
same,Percent of Isoproterenol Control Activity,3T3-L1 Mouse Adipocytes,108%
same,Percent of Control Activity,H4-IIE Cells,87%
69 (MLMVEWWLGWLHM) [compound 69],Percent of Control Activity,C2C12 Cells,107%
same,Percent of Isoproterenol Control Activity,3T3-L1 Mouse Adipocytes,104%
same,Percent of Control Activity,H4-IIE Cells,111%
121 (MSNMKTFSSA) [compound 121],Percent of Control Activity,C2C12 Cells,99%
same,Percent of Isoproterenol Control Activity,3T3-L1 Mouse Adipocytes,118%
same,Percent of Control Activity,H4-IIE Cells,95%
158 (MWEEAGRMSEGCLG) [compound 158],Percent of Control Activity,C2C12 Cells,106%
same,Percent of Isoproterenol Control Activity,3T3-L1 Mouse Adipocytes,96%
same,Percent of Control Activity,H4-IIE Cells,127%
144 (MVIICFEVSLISHCWVVISRLLM) [compound 144],Percent of Control Activity,C2C12 Cells,105%
same,Percent of Isoproterenol Control Activity,3T3-L1 Mouse Adipocytes,96%
same,Percent of Control Activity,H4-IIE Cells,105%
71 (MLPLHIYHNTMGLTHPPH) [compound 71],Percent of Control Activity,C2C12 Cells,105%
same,Percent of Isoproterenol Control Activity,3T3-L1 Mouse Adipocytes,89%
same,Percent of Control Activity,H4-IIE Cells,107%
164 (MWNDLLQCSEP) [compound 164],Percent of Control Activity,C2C12 Cells,102%
same,Percent of Isoproterenol Control Activity,3T3-L1 Mouse Adipocytes,116%
same,Percent of Control Activity,H4-IIE Cells,109%
55 (MKHRQVLWVLSCGS) [compound 55],Percent of Control Activity,C2C12 Cells,103%
same,Percent of Isoproterenol Control Activity,3T3-L1 Mouse Adipocytes,98%
same,Percent of Control Activity,H4-IIE Cells,118%
203 (KNIEAPLAW) [compound 203],Percent of Control Activity,C2C12 Cells,98%
same,Percent of Isoproterenol Control Activity,3T3-L1 Mouse Adipocytes,107%
same,Percent of Control Activity,H4-IIE Cells,102%
131 (MTELLTPNWTNLSPY) [compound 131],Percent of Control Activity,C2C12 Cells,107%
same,Percent of Isoproterenol Control Activity,3T3-L1 Mouse Adipocytes,110%
same,Percent of Control Activity,H4-IIE Cells,97%
15 (MDMVPQGKDEKL) [compound 15],Percent of Control Activity,C2C12 Cells,96%
same,Percent of Isoproterenol Control Activity,3T3-L1 Mouse Adipocytes,90%
same,Percent of Control Activity,H4-IIE Cells,88%
"CN(C)C(=N)N=C(N)N [Metformin, reference compound]",reduction of extracellular glucose compared to untreated controls,"C2C12 Cells; metformin 1 mM, across all plates",50-70%
insulin [reference compound],Free fatty acid levels,"3T3-L1 Mouse Adipocytes; insulin 0.25 nM with 0.1 nM isoproterenol, 3 h",at or below levels for unstimulated control without isoproterenol
same,"Glucose levels, % of the untreated control value",H4-IIE Cells; 0.5-1 nM insulin,< 5%
